Measurements published in patent publication US20240011030A1, “TREATMENTS FOR RETINAL DEGENERATIVE DISEASES” (Novartis AG, priority 2020, published 2024).

B1: IFNα: type I interferon purchased from R&D Systems (protein, UniProt P01562 24-189, looked up)
Interferon alpha-1/13: CDLPETHSLDNRRTLMLLAQMSRISPSSCLMDRHDFGFPQEEFDGNQFQKAPAISVLHELIQQIFNLFTTKDSSAAWDEDLLDKFCTELYQQLNDLEACVMQEERVGETPLMNADSILAVKKYFRRITLYLTEKKYSPCAWEVVRAEIMRSLSLSTNLQERLRRKE

How the values were obtained:
Assay type in all cases: cell-based, human
DDX58/RIG-I [1] = experiment: anti-RIG-I/DDX58 western blot verifying knockout; conditions: ARPE-19-Cas9 cells transduced with gRNA, FIG. 10D
Description: (§1) ARPE-19 cells stably expressing the Cas9 gene (ARPE19-Cas9) were generated by lentiviral transduction of ARPE-19 cells. Virus was harvested from supernatants of HEK-293T cells (ATCC) cotransfected with the in-house lentiviral vector pNGx_LV_c010 (39) and Lentiviral Packaging Plasmid Mix (Cellecta, Mountain View, CA; #CPCP-K2A) using TransIT-293 Transfection Reagent (MirusBio, Madison, WI). ARPE19-Cas9 cells were selected with 125 μg/mL HygromycinB (Invitrogen, Carlsbad, CA) and Cas9 expression was verified by western blot using Anti-FLAG primary antibody (Sigma-Aldrich #F1804). ARPE-19 RIG-I KO cells were generated by sgRNA expression in ARPE-19-Cas9 cells by lentiviral infection using the in-house lentiviral vector pNGx_LV_g003 (39). The sgRNA sequence targeting DDX58/RIG-I is 5′-[…]-3′ (SEQ ID NO: 1). Control sgRNA sequences were:
Knockout was verified by western blot (FIG. 10D).
For western blot, samples (30 μg of protein) were dissolved in sample buffer (Invitrogen) and boiled for 5 min at 100° C. The sample was then separated by Criterion™ TGX™ precast gel electrophoresis and electrotransferred onto nitrocellulose membranes (Bio-Rad, Hercules, CA). […] The immuno-reactive proteins were detected using SuperSignal™ West Femto Maximum sensitivity substrate (ThermoFisher Scientific) and imaged on FluorChem M (ProteinSimple, San Jose, CA).

DDX58/RIG-I [2] = experiment: CRISPR/Cas9 KO, IL-6 secretion by ELISA after nucleic acid stimulation; conditions: ARPE-19-RIG-I KO, 0.25 μg/ml nucleic acid for 24 hours, FIG. 4B
Description: In addition to the type I IFN response, nucleic acid sensing can also activate NFκB-dependent cytokine release. IL-6 secretion was measured in ARPE19-Cas9, Control gRNA, and RIG-I gRNA cell line cultures 24 hours after nucleic acid stimulation to evaluate nucleic acid-induced NFκB activation in RPE cells. All cells were stimulated with 0.25 μg/ml nucleic acid for 24 hours, after which IL-6 secretion was measured by ELISA.
as §1, with “1).” for “1). Control sgRNA sequences were:”

DDX58/RIG-I [3] = experiment: CRISPR/Cas9 KO, IFNβ secretion by ELISA after nucleic acid stimulation; conditions: ARPE19-Cas9 cells, 0.25 μg/ml nucleic acid for 24 hours, FIG. 4A
Description: Further validation of the importance of RIG-I as an intracellular nucleic acid sensor was performed using CRISPR/Cas9 KO experiments in ARPE-19 cells. An ARPE-19 cell line stably expressing Cas9 (ARPE19-Cas9) was generated, along with control gRNA and RIG-I gRNA-transduced cell lines. ARPE-19 control gRNA and ARPE-19 RIG-I gRNA cells were generated by sgRNA expression in ARPE-19-Cas9 cells by lentiviral infection. The sgRNA sequence targeting DDX58/RIG-I was 5′-[…]-3′ (SEQ ID NO:1). Control sgRNA sequences used were: 5′-[…]-3′ (SEQ ID NO:8), 5′-[…]-3′ (SEQ ID NO:9), 5′-[…]-3′ (SEQ ID NO:10), and 5′-[…]-3′ (SEQ ID NO: 11). […] All cells were stimulated with 0.25 μg/ml nucleic acid for 24 hours, after which IFNβ secretion was measured by ELISA.
ARPE-19 cells stably expressing the Cas9 gene (ARPE19-Cas9) were generated by lentiviral transduction of ARPE-19 cells. […]
For ELISA, assays were run using Meso Scale Discovery plates (Meso Scale Diagnostics, Rockville, MD). […] Lysates or conditioned media were measured in 384-well plates using antibody pairs for ISG15 (R&D #AF4845, #A-830), IFNβ (R&D #DY814), IFNα1 (abcam #ab215408), IFNγ (R&D #DY285B), IFNλ1/3 (R&D #DY1598B), and cGAS (Cayman #23853, CST #66546). Protein levels were measured according to manufacturer instructions, and detected on a Meso Sector S 600 imager.

RPE cells = experiment: ISG15 induction by IFN stimulation (ELISA); conditions: THP1, ARPE-19 or iPS-RPE cells, IFNs up to 100 μg/ml, 24 hours, FIGS. 2D to 2F
Description: To test whether IFNs can induce an IFN response and, if so, which IFNs can induce an IFN response, cells were treated with different IFNs (IFNα1, IFNβ, IFNγ, or IFNλ1/2/3), and ISG15 induction was measured. Cells were treated with different IFN types at 100 ng/ml each (FIG. 2D) or 0 ng/ml IFN, 0.1 ng/ml IFN, 1 ng/ml IFN, 10 ng/ml IFN, or 100 ng/ml IFN (FIGS. 2E and 2F). ISG15 expression in was detected by ELISA 24 hours after treatment as described above, using antibody pairs for ISG15 (R&D #AF4845, #A-830).
For ELISA, assays were run using Meso Scale Discovery plates (Meso Scale Diagnostics, Rockville, MD). Lysates were extracted using cell lysis buffer (CST #9803), and supplemented with protease and phosphatase inhibitors. Lysates or conditioned media were measured in 384-well plates using antibody pairs for ISG15 (R&D #AF4845, #A-830), IFNβ (R&D #DY814), IFNα1 (abcam #ab215408), IFNγ (R&D #DY285B), IFNλ1/3 (R&D #DY1598B), and cGAS (Cayman #23853, CST #66546). Protein levels were measured according to manufacturer instructions, and detected on a Meso Sector S 600 imager.

Row | Molecule | DDX58 protein by western blot (DDX58/RIG-I [1]) | poly(I:C)-induced IL-6 release (DDX58/RIG-I [2]) | IFNβ secretion response to all nucleic acid species tested (DDX58/RIG-I [3]) | ISG15 induction in response to IFN stimulation (RPE cells)
1 | 5′-ACTCACCCTCCCTAAACCAG-3′ (expressed or natural sequence) [RIG-I gRNA] | lack of detectable DDX58 protein | only partially reduced | completely abrogated | 
2 | B1 |  |  |  | primarily responded
